These results are taken from patent US8658646B2, “Pyrrolopyrazine kinase inhibitors” (Hoffmann-LaRoche Inc., priority 2011, dated 2014).

The target in assay [1] is T1, JAK3: Recombinant human kinase domain (Homo sapiens, UniProt P52333).
T1 construct: JAK3: Recombinant human kinase domain from Millipore (Cat #14-629) or prepared; purchased Millipore 14-629
As to the kind of experiment: Determination of IC50 of Janus Kinase (JAK) inhibition, radioactive end-point 33P-ATP assay, JAK3. It counts as biochemical. Particulars: ATP 1.5 uM, peptide 50 uM, 20 minutes, read-out: JAK3-INHIB-DR/v1~NO ADDITIVE~Enzyme_Conc = 100.
Description: Determination of IC50 of Janus Kinase (JAK) Inhibition:
Assay conditions used are described below: • Assay Buffer: JAK Kinase Buffer: 50 mM Hepes [pH 7.2], 10 mM MgCl2, 1 mM DTT, 1 mg/ml BSA. The assay was carried out in this buffer. • Assay Format The kinase activity of all three JAK kinases was measured using a radioactive, end-point assay and with trace amounts of ^33P-ATP. The assays were carried out in 96-well polypropylene plates. Experimental Method:
All concentrations were final in the reaction mixture and all incubations were carried at room temperature. […] Final concentration of DMSO in the reaction was 10%. • 2) Compounds were preincubated with enzyme (0.5 nM JAK3 (commercially available), 0.2 nM JAK3 (prepared), 1 nM JAK2, 5 nM JAK1) for 10 minutes. • 3) Reactions were initiated by the addition of a cocktail of the two substrates (ATP and peptide premixed in the JAK Kinase Buffer). […] JAK1 assay was carried out at an ATP concentration of 10 uM and a peptide concentration of 50 uM. • 4) The duration of the assay for JAK2 and JAK3 is 20 minutes. JAK1 assay was carried out for 40 minutes. With all three enzymes, reactions were terminated by the addition of 0.5M EDTA to a final concentration of 100 mM. • 5) 25 ul of terminated reactions were transferred to 150 ul of a 7.5% (v/v) slurry of streptavidin-coated sepharose beads in MgCl2- and CaCl2-free 1× Phosphate Buffered Saline containing 50 mM of EDTA in 96-well, 1.2 um MultiScreen-BV filter plates. • 6) After a 30-minute incubation, the beads were washed under vacuum with the following buffers: • a. 3 to 4 washes with 200 ul of 2M NaCl. • b. 3 to 4 washes with 200 ul of 2M NaCl plus 1% (v/v) phosphoric acid. • c. 1 wash with water. • 7) Washed plates were dried in a 60° C. oven for between 1 to 2 hours. • 8) 70 ul of Microscint 20 scintillation fluid was added to each well of filter plates and after at least 30 minutes of incubation, radioactive counts were measured in a Perkinelmer microplate scintillation counter.

Assay [2] concerns the target T2, recombinant human SYK360-635 (Homo sapiens, UniProt P43405).
T2 construct: made in house
As to the kind of experiment: Determination of IC50 of Spleen Tyrosine Kinase (SYK) inhibition, 33P ATP filtration assay. The assay is classed as biochemical. The note with it: SYK aa 360-635 0.5 nM; ATP 20 μM, peptide 5 μM, 0.1% BSA; read-out: SYK_ENZYME_FILTRATION/v1, BSA.
Description: All concentrations were final in the reaction mixture and all incubations were carried at room temperature. […] SYK Assay Information Determination of IC50 of Spleen Tyrosine Kinase (SYK) Inhibition:
SYK kinase assay is a standard kinase assay adapted to a 96 well plate format. This assay is performed in 96-well format for IC50 determination with 8 samples which represented 10 half log dilutions and a 40 μL reaction volume. The assay measures the incorporation of radiolabeled ^33P γATP into an N-terminally biotinylated peptide substrate, derived from naturally occurring phosphoacceptor consensus sequence (Biotin-11aa DY*E). […] Experimental Method:
DMSO and the mixture was incubated for 10 min at RT.
The kinase reaction was initiated by the addition of 10 μL 4× substrate cocktail containing the DYE peptide substrate [0 or 5 μM], ATP [20 μM] and ^33PγATP [2 μCi/r×n]. After incubation at 30° C. for 15 min, the reaction was terminated by the transfer of 25 μL pf the reaction sample to a 96 well 0.65 μm Millipore MADVNOB membrane/plate containing 200 μL 5 mM EDTA and 20% Streptavidine coated beads in PBS.
The unbound radionucleotides were washed under vacuum with 3×250 μL 2M NaCl; 2×250 μL 2M NaCl+1% phosphoric acid; 1×250 μL H2O. After the last wash membrane/plates were transferred to an adaptor plate, heat dried for 15 min at 60° C., and 50 μL scintillation cocktail was added to each well and 4 h later the amount of radioactivity was counted in a top counter.

Where “and” joins values, the source holds several entries; their conditions need not be identical. Equal entries are not always repeated.

T1 sequence (P52333 822-1111 limits assumed): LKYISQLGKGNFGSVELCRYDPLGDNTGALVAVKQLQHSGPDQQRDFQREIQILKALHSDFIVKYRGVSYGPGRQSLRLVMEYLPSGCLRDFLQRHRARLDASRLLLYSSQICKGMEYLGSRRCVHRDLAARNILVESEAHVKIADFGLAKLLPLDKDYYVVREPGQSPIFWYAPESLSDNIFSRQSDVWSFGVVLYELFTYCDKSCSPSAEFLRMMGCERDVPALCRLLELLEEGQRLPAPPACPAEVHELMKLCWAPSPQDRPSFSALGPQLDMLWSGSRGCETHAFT

As to `CC(C)NC(=O)c1c[nH]c2ncc(-c3nn(CCN4CCOCC4)c4cc(Cl)cc(F)c34)nc12` [Example I-129, 2-[6-Chloro-4-fluoro-1-(2-morpholin-4-yl-ethyl)-1H-indazol-3-yl]-5H-pyrrolo[2,3-b]pyrazine-7-carboxylic acid isopropylamide], the values for the IC50 in assay [1] and in assay [2] were 4.41 nM and 49.5 nM, respectively.

As to `CC(C)NC(=O)c1c[nH]c2ncc(-c3nn(CCCN(C)C)c4cc(Cl)cc(F)c34)nc12` [Example I-131, 2-[6-Chloro-1-(3-dimethylamino-propyl)-4-fluoro-1H-indazol-3-yl]-5H-pyrrolo[2,3-b]pyrazine-7-carboxylic acid isopropylamide], the IC50 came out at 7.06 nM in assay [1] and 39.8 nM in assay [2].

As for `CC(C)NC(=O)c1c[nH]c2ncc(-c3nn(CCCN4CCOCC4)c4cc(Cl)cc(F)c34)nc12` [Example I-132, 2-[6-Chloro-4-fluoro-1-(3-morpholin-4-yl-propyl)-1H-indazol-3-yl]-5H-pyrrolo[2,3-b]pyrazine-7-carboxylic acid isopropylamide], the results for the IC50 in assay [1] and in assay [2] were 4.72 nM and 23.4 nM, respectively.

`C[C@H](Cn1ccnc1)NC(=O)c1c[nH]c2ncc(-c3nn(C)c4cc(Cl)ccc34)nc12` [Example I-134, 2-(6-Chloro-1-methyl-1H-indazol-3-yl)-5H-pyrrolo[2,3-b]pyrazine-7-carboxylic acid ((R)-2-imidazol-1-yl-1-methyl-ethyl)-amide]: the IC50 in assay [1] came out at 67.3 nM; in assay [2] it was 482 nM.

Take `Cn1nc(-c2cnc3[nH]cc(C(=O)N[C@H]4CCCOC4)c3n2)c2ccc(Cl)cc21` [Example I-138, 2-(6-Chloro-1-methyl-1H-indazol-3-yl)-5H-pyrrolo[2,3-b]pyrazine-7-carboxylic acid (S)-tetrahydro-pyran-3-ylamide]: the figures for the IC50 in assay [1] and in assay [2] were 31.4 nM and 21.9 nM, respectively.

Regarding `Cn1nc(-c2cnc3[nH]cc(C(=O)N[C@@H]4CCCOC4)c3n2)c2ccc(Cl)cc21` [Example I-139, 2-(6-Chloro-1-methyl-1H-indazol-3-yl)-5H-pyrrolo[2,3-b]pyrazine-7-carboxylic acid (R)-tetrahydro-pyran-3-ylamide], the IC50 in assay [1] is 4.59 nM; in assay [2] it was 8.5 nM.

With `C[C@H](NC(=O)c1c[nH]c2ncc(-c3nn(C)c4cc(Cl)ccc34)nc12)C1CC1` [Example I-140, 2-(6-Chloro-1-methyl-1H-indazol-3-yl)-5H-pyrrolo[2,3-b]pyrazine-7-carboxylic acid ((S)-1-cyclopropyl-ethyl)-amide], the IC50 in assay [1] came out at 1.11 nM; in assay [2], 9.15 nM.

Consider `C[C@@H](CC#N)NC(=O)c1c[nH]c2ncc(-c3nn(C)c4cc(Cl)ccc34)nc12` [Example I-142, 2-(6-Chloro-1-methyl-1H-indazol-3-yl)-5H-pyrrolo[2,3-b]pyrazine-7-carboxylic acid ((S)-2-cyano-1-methyl-ethyl)-amide], for which the IC50 in assay [1] is 8.04 nM; in assay [2] it was 20.5 nM.

With `Cn1nc(-c2cnc3[nH]cc(C(=O)NCCN)c3n2)c2ccc(Cl)cc21` [Example I-143, 2-(6-Chloro-1-methyl-1H-indazol-3-yl)-5H-pyrrolo[2,3-b]pyrazine-7-carboxylic acid (2-amino-ethyl)-amide], the IC50 is > 1000 nM and 536 nM in assay [1]; 54.9 nM in assay [2].

With `Cn1nc(-c2cnc3[nH]cc(C(=O)N[C@H]4CC[C@H](O)CC4)c3n2)c2ccc(Cl)cc21` [Example I-144, 2-(6-Chloro-1-methyl-1H-indazol-3-yl)-5H-pyrrolo[2,3-b]pyrazine-7-carboxylic acid (trans-4-hydroxy-cyclohexyl)-amide], the IC50 was 13.1 nM in assay [1] and 37.1 nM in assay [2].

`Cn1nc(-c2cnc3[nH]cc(C(=O)N[C@H]4CC[C@@H](N)CC4)c3n2)c2ccc(Cl)cc21` [Example I-145, 2-(6-Chloro-1-methyl-1H-indazol-3-yl)-5H-pyrrolo[2,3-b]pyrazine-7-carboxylic acid (cis-4-amino-cyclohexyl)-amide]: the figures for the IC50 in assay [1] and in assay [2] were 17.4 nM and 1.9 nM, respectively.

As for `Cn1nc(-c2cnc3[nH]cc(C(=O)N[C@H]4CC[C@H](N)CC4)c3n2)c2ccc(Cl)cc21` [Example I-146, 2-(6-Chloro-1-methyl-1H-indazol-3-yl)-5H-pyrrolo[2,3-b]pyrazine-7-carboxylic acid (trans-4-amino-cyclohexyl)-amide], the IC50 in assay [1] is 18.3 nM; in assay [2], 8.65 nM.

In the case of `CC(Cc1ccccc1)NC(=O)c1c[nH]c2ncc(-c3nn(C)c4cc(Cl)ccc34)nc12` (stereo not shown) [Example I-150, 2-(6-Chloro-1-methyl-1H-indazol-3-yl)-5H-pyrrolo[2,3-b]pyrazine-7-carboxylic acid (1-methyl-2-phenyl-ethyl)-amide], the IC50 in assay [1] came out at 22.5 nM; in assay [2] it was 1540 nM.

Turning to `Cn1nc(-c2cnc3[nH]cc(C(=O)N[C@@H]4CC[C@H](O)C4)c3n2)c2ccc(Cl)cc21` [Example I-151, 2-(6-Chloro-1-methyl-1H-indazol-3-yl)-5H-pyrrolo[2,3-b]pyrazine-7-carboxylic acid ((1R,3S)-3-hydroxy-cyclopentyl)-amide], the IC50 in assay [1] was 3.47 nM; in assay [2], 23.1 nM.

Take `CC(NC(=O)c1c[nH]c2ncc(-c3nn(C)c4cc(Cl)ccc34)nc12)C1CCCO1` (stereo not shown) [Example I-154, 2-(6-Chloro-1-methyl-1H-indazol-3-yl)-5H-pyrrolo[2,3-b]pyrazine-7-carboxylic acid [1-(tetrahydro-furan-2-yl)-ethyl]-amide]: the IC50 in assay [1] was 4.95 nM; in assay [2] it was 47.3 nM.

With `Cn1nc(-c2cnc3[nH]cc(C(=O)N[C@@H]4CCc5ccccc54)c3n2)c2ccc(Cl)cc21` [Example I-157, 2-(6-Chloro-1-methyl-1H-indazol-3-yl)-5H-pyrrolo[2,3-b]pyrazine-7-carboxylic acid (R)-indan-1-ylamide], the IC50 in assay [1] was determined as 71.6 nM; in assay [2], 413 nM.

Consider `Cn1nc(-c2cnc3[nH]cc(C(=O)N[C@H]4CC[C@@H](O)CC4)c3n2)c2ccc(Cl)cc21` [Example I-158, 2-(6-Chloro-1-methyl-1H-indazol-3-yl)-5H-pyrrolo[2,3-b]pyrazine-7-carboxylic acid (cis-4-hydroxy-cyclohexyl)-amide], for which the IC50 was 2.02 nM in assay [1] and 9.7 nM in assay [2].

With `COC[C@@H](C)NC(=O)c1c[nH]c2ncc(-c3nn(C)c4cc(Cl)ccc34)nc12` [Example I-159, 2-(6-Chloro-1-methyl-1H-indazol-3-yl)-5H-pyrrolo[2,3-b]pyrazine-7-carboxylic acid ((R)-2-methoxy-1-methyl-ethyl)-amide], the IC50 in assay [1] amounted to 5.83 nM; in assay [2], 66.5 nM.

Take `CC(NC(=O)c1c[nH]c2ncc(-c3nn(C)c4cc(Cl)ccc34)nc12)C(F)(F)F` (stereo not shown) [Example I-160, 2-(6-Chloro-1-methyl-1H-indazol-3-yl)-5H-pyrrolo[2,3-b]pyrazine-7-carboxylic acid (2,2,2-trifluoro-1-methyl-ethyl)-amide]: the IC50 in assay [1] was found to be 19.4 nM; in assay [2] it was 37.3 nM.

Take `CC[C@H](CO)NC(=O)c1c[nH]c2ncc(-c3nn(C)c4cc(Cl)ccc34)nc12` [Example I-161, 2-(6-Chloro-1-methyl-1H-indazol-3-yl)-5H-pyrrolo[2,3-b]pyrazine-7-carboxylic acid ((R)-1-hydroxymethyl-propyl)-amide]: the IC50 in assay [1] was found to be 16.3 nM; in assay [2], 17.3 nM.
